Source: article PMC9088798, “An Approach to Derive Functional Peptide Inhibitors of Transcription Factor Activity” (JACS Au, 2022)

How the values were obtained:
[1] = tested on: cJun bZIP; experiment: CD thermal denaturation of heterodimer with cJun bZIP; format: binding, human
Experimental: Figure 5 TBS winner peptide HingeW binds cJun preferentially over A-FosW. CD spectra (20 °C) show the binding of cJun to either (A) HingeW or (B) A-FosW. […] However, the effect is larger for HingeW, indicating a greater increase in peptide helicity. Similarly, the thermal denaturation of cJun bound to either (C) HingeW or (D) A-FosW is right-shifted from the average of the component peptide denaturation profiles. […] CD dimer exchange spectra show (E) an increase in helicity when HingeW is mixed with the A-FosW/cJun heterodimer as the HingeW exchanges with the A-FosW due to the binding preference of cJun for HingeW and (F) no shift from the average is observed when A-FosW is mixed with the HingeW/cJun heterodimer, indicating no change in dimer populations. Arrows are shown to highlight the shift from the average at 190 and 222 nm. In all experiments, the total sample peptide concentration was fixed to 10 μM, using equimolar concentrations of each component peptide to remove concentration-dependent effects. […]
(§1) µM) alongside ampicillin, kanamycin and chloramphenicol to maintain the required plasmids, and IPTG (1 mM) to induce protein expression. The library transformants were […]
(§2) however a lower stringency is used initially before selection is increased in later steps.
(§3) Colonies from this first round of selection were pooled and serially grown in liquid culture at starting OD600 of 0.05 and grown at 37°C with shaking at 200 rpm until the OD600 […]
(§4) increased to the optimum 4 µM in subsequent passages. Bacteria containing the most effective functional antagonists were expected to produce higher levels of TRE-mDHFR which provides a growth advantage, and these will dominate the culture. At each passage step, a sample of the culture was plated on LB agar (supplemented with antibiotics to maintain plasmids) to select and sequence individual colonies, and a DNA pool was also sequenced. This allows the occurrence of library members to be monitored as winner sequences are selected for. […]

[2] = target: T1, cJun (Homo sapiens, UniProt P05412); experiment: Isothermal titration calorimetry, binding to cJun; settings: ITC, average of two independent experiments, one SD
T1 construct: The human cJun bZIP domain spans from Arg252 to Leu308; His-SUMO (N, cleaved yes); AS cap (two residues Ala-Ser) (N); GAP cap (three residues Gly-Ala-Pro) (C); made in house; host or cells: E. coli (pET21-His-SUMO plasmid)
T1 sequence (P05412 252-308): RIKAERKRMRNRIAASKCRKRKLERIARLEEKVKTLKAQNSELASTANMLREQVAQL
Experimental: Isothermal Titration Calorimetry (ITC): Peptides were studied in an ITC buffer consisting of 10 mM potassium phosphate, 150 mM potassium fluoride and 5 mM TCEP at pH 7.4. Using a MicroCal VP-ITC instrument (Malvern), 10 µL injections of antagonist peptide (HingeW or A-FosW) at 10 µM were injected into the cell containing cJun at 1 µM.
MicroCal Origin software was used to record and analyse the heat change upon addition.
Control experiments involved the injection of the antagonist peptide sample into the cell containing ITC buffer alone to determine the heat of dilution which was subtracted. The resulting binding data were fit to a one site binding model to extract the enthalpy change of binding (ΔH) and the equilibrium binding constant (K D), from which the free energy change of binding (ΔG) and the entropy change of binding (ΔS) was calculated (41).
Thermodynamic parameters are presented as an average of two independent experiments with errors given as one standard deviation. […]

[3] = target: T2, cJun/TRE DNA interaction (Homo sapiens, UniProt P05412); experiment: CD TRE DNA peak shift, antagonism of cJun/TRE DNA interaction; format: biochemical; settings: cJun 20 μM, TRE DNA 5 μM, DNA peak ~281 nm, Hill equation; three independent experiments, one SD; pH 7.4
T2 construct: The human cJun bZIP domain spans from Arg252 to Leu308; His-SUMO (N, cleaved yes); AS cap (two residues Ala-Ser) (N); GAP cap (three residues Gly-Ala-Pro) (C); made in house; host or cells: E. coli (pET21-His-SUMO plasmid)
T2 sequence (P05412 252-308): as above
Experimental: The binding of cJun to TRE DNA can be observed by monitoring a DNA absorbance peak in the CD spectrum centered at ∼281 nm.[44] […] The addition of cJun (20 μM) to TRE DNA (5 μM) decreases this DNA peak by 55% as the cJun engages its target TRE site and alters the DNA structure (Figure 6A). Subsequent titration of HingeW into this bound cJun/TRE DNA mixture reverses the peak shift, with the peak increasing as DNA is released.
Figure 6 HingeW antagonizes cJun/TRE DNA interaction more effectively than A-FosW. (A) CD spectra showing a shift in the TRE DNA peak at ∼281 nm upon addition of cJun, which is reversed by the titration of HingeW into the sample, as HingeW sequesters the cJun in a nonfunctional heterodimer. […] EMSA showing the (C) unbound TRE DNA band shift upon addition of cJun and the subsequent restoration of the unbound DNA band intensity upon titration of either (D) HingeW or (E) A-FosW. (F). For both CD and EMSA, data was averaged from three independent experiments and the plotted error bars indicate one standard deviation. […]
as §1
increased to the optimum 4 µM in subsequent passages. […] This allows the occurrence of library members to be monitored as winner sequences are selected for. […]

[4] = tested on: TRE DNA; experiment: CD control, interaction with TRE DNA; format: binding; settings: peptide 50 µM, TRE DNA 5 µM, CD spectra 260-320 nm
Experimental: as §1, §2, §3
as §4, with “for. Assay Validation experiments utilised a modified assay methodology whereby overnight cultures from glycerol stocks of the Control Strains (Figure S6) were diluted to OD600=0.5 and 50 µL was plated on a selective M9 minimal” for “for.”
Circular Dichroism (CD): An Applied Photophysics Chirascan was used for CD measurements, with a 200 µL sample in a 1 mm path length CD cell. […]

Kd ([2]; 10 µM antagonist peptide injected into 1 µM cJun, 10 mM potassium phosphate, 150 mM KF, 5 mM TCEP, pH 7.4, one site model): 0.0883 ± 0.0176 µM
TΔS [2]: −112.6 ± 4.1 kJ mol^–1
ΔH [2]: −152.6 ± 4.1 kJ mol^–1
N (binding stoichiometry) ([2]; single-site binding model): 1.04 ± 0.08
IC50 [3]: 16 ± 0.4 µM
Sequence: LEQRAEELARENEELEKEAEELEQELDELQAEIEQLEERNYALRKEIEDLQKQLEKL [A-FosW, N-terminal AS and C-terminal GAP caps, 6xHis-tagged]
smaller initial transition of heterodimer with cJun (double transition) ([1]; 222 nm thermal denaturation): ~30 °C
Tm of heterodimer with cJun ([1]; 222 nm, 1-90 °C at 1 °C increments, total peptide 10 μM equimolar, pH 7.4, two-state model): 69.9 °C
ΔTm from component average (heterodimer with cJun) ([1]; heterodimer Tm minus average of component peptide denaturation profiles, for HingeW an estimate because homodimer Tm undeterminable): 27.5 °C
interaction with TRE DNA [4]: no interaction with DNA
